The values below come from ChEMBL document CHEMBL1201862, “PubChem BioAssay data set” (2004).

Values joined by “and” are separate entries in the source; they are usually repeats but may differ in a detail not shown here. Equal values may be shown once. Active and inactive are the calls of the source.

The AC50 is the concentration at which the activity in the assay is half-maximal. In general, EC50 refers to the midpoint of the concentration-response curve. One may read the IC50 as the point on the concentration scale where inhibition reaches its midpoint.

For test [1], the system named is INS1. Kind of test: protection of INS-1E cells from cytokine death, dose response, ATP luminescence, dry powder (AID 488844). The format is functional, cell-based. As to conditions: Rattus norvegicus.
A short description of test [2]: inhibitors of cytokine-induced nitrite release, dose response, cell-based, Griess absorbance, INS-1E, dry powder, set 3 (AID 488870). It is filed as functional. Particulars: Rattus norvegicus. (In general: Nitrite, measured by Griess reagent, commonly stands in for NO production.)
For test [3], the system named is INS1. Put plainly: protection from cytokine-induced mitochondrial depolarization, dose response, cell-based, INS-1E, JC-1 fluorescence ratio, dry powder (AID 488931). The format is functional. Particulars: Rattus norvegicus.
Test [4] has as its system INS1. Kind of test: protection from cytokine-driven beta-cell apoptosis, dose response, JC-1 fluorescence, INS-1E, dry powder, set 2 (AID 488867). The format is functional, cell-based. Particulars: Rattus norvegicus.
Test [5] addresses Voltage-gated inwardly rectifying potassium channel KCNH2 (Homo sapiens, UniProt Q12809). Particulars: Potency.
For test [6], the target named is Beta-2 adrenergic receptor (Homo sapiens, UniProt P07550). Kind of test: beta2AR agonists driving receptor internalization, dose response, cell-based, FAP fluorogen, flow cytometry, cherry pick 1 (AID 588763). The format is functional. Background: A flow cytometer gives signals particle by particle.
Sequence of Beta-2 adrenergic receptor (P07550 whole entry): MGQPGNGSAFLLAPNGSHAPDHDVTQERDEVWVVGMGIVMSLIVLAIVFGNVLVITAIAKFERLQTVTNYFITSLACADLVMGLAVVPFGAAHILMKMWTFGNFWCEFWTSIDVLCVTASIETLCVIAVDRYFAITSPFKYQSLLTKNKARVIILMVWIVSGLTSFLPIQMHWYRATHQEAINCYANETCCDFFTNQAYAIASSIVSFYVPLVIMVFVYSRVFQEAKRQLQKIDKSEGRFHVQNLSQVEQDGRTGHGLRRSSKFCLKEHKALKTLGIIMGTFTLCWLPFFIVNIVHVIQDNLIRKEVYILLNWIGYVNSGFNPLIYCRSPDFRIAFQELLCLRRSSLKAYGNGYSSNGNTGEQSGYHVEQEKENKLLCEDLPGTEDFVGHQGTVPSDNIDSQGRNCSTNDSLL
In the next test the target is Paired box protein Pax-8 (Homo sapiens, UniProt Q06710). Kind of test: inhibitors of PAX8-driven TPO luciferase reporter, dose response, RMG-I cells, cherry-pick (AID 687027).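 Also: luciferase reporter driven by Pax8 target thyroperoxidase promoter measured by SteadyGlo luminescence.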 The format is functional, cell-based. For orientation: In a reporter assay the amount or activity of a reporter protein is the signal.
Sequence of Paired box protein Pax-8 (Q06710 whole entry): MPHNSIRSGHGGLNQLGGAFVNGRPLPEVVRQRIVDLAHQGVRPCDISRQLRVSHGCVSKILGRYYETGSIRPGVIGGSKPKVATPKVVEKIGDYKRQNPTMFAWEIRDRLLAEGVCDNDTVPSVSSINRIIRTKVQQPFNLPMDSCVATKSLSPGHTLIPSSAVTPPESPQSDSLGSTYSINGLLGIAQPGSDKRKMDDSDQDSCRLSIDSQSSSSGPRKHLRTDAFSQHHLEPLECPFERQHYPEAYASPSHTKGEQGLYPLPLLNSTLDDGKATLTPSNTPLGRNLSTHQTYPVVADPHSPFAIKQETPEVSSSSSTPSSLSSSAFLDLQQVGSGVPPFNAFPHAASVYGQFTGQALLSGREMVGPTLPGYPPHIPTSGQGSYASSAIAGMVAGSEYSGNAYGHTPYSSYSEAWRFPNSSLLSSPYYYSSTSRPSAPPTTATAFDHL
A short description of test [7]: Shn3 3'UTR reporter inhibitors, dose response, cell-based, Clone20 osteoblasts, firefly luciferase, cherry-picked (AID 624132).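 Also: firefly luciferase luminescence from reporter carrying the Shn3 3'UTR in osteoblasts.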 The format is functional.
Test [8] in a line: Luminescence Cell-Based Dose Response HTS to Identify Inhibitors of 5'UTR Stem-Loop Driven Prion Protein mRNA Translation in H4 Neuroglioblastoma Cells. [Related pubchem assays: 1827 (Project Summary), 1813 (Primary HTS)]. The format is functional.
A short description of test [9]: CEM21 lymphoblast cell cytotoxicity, dose response, cytotoxicity control for viral fusion inhibitor project, CellTiter-Glo luminescence, cherry-picked (AID 652042).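 Also: potency for signal decrease meaning cytotoxicity.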 It is filed as functional, cell-based.
Test [10] deals with T1, Heat shock factor protein 1 (Mus musculus, UniProt P38532).
T1 sequence (P38532 whole entry): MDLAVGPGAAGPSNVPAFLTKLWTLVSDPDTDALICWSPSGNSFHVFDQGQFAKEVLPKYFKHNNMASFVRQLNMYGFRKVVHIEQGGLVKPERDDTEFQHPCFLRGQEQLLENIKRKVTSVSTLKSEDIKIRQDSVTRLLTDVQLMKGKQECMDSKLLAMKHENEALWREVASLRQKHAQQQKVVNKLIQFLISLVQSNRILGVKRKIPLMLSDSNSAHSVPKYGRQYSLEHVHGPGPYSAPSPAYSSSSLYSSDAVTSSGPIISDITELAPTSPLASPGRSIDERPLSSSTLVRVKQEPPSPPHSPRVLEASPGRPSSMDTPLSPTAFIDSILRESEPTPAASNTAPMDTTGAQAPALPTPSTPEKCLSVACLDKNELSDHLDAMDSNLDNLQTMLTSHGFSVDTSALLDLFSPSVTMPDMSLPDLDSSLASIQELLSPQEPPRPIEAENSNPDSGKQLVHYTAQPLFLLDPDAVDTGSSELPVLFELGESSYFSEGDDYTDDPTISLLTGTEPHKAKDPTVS
Kind of test: inhibition of MG132-induced HSE-luciferase signal, confirmation, cell-based, NIH3T3, luminescence, dose retest (AID 2382).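 Also: NIH3T3 fibroblasts with HSF1-driven luciferase reporter stressed by proteasome inhibitor MG132; luminescence from HSF1-driven luciferase expression after 8 hours of MG132 stress.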 The format is functional.

A short description of test [11]: inhibitors of HIV Env-driven cell fusion, dose response, cherry-pick (AID 652057). It is filed as functional, cell-based.
Test [12] is described as follows: cytotoxicity in HEK-293T NF-kB-Luc cells, dose response, cytotoxicity control for B/T-cell NF-kB inhibitor project, cell-based, uHTS hits (AID 489019).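 Also: IC50 reflects cytotoxicity as loss of cell viability.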 The format is functional.
Test [13] can be described thus: reduction of endogenous Shn3 mRNA, dose response, qPCR, Clone20 cells, cherry-pick (AID 743415). It is filed as functional, cell-based.
Test [14] concerns the target Cyclin-dependent kinase 5/CDK5 activator 1 (Homo sapiens, UniProt Q00535). Put plainly: CDK5/p35 kinase inhibitors, dose response, biochemical, cherry-picked samples, set 2 (AID 504545).
Test [15] is described as follows: inhibitors of SNCA 5'UTR-driven reporter translation, confirmation, H4 neuroglioma cells, luminescence (AID 1988). The format is functional, cell-based.
Test [16] can be described thus: reduction of Shn3 3'UTR firefly luciferase signal, dose response, Schnurri-3 inhibitor project, cell-based, Clone20 osteoblasts, cherry-pick, set 2 (AID 720490).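 Also: actives lower the luminescence signal as inhibitors.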 The format is functional.
A short description of test [17]: inhibitors of clade B AD8 Env fusion, dose response, cell-based, cherry-pick (AID 652062).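 Also: luciferase signal from cell-cell fusion driven by HIV-1 clade B AD8 Env; potency is for inhibitors of fusion seen as a drop in luminescence.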 It is filed as functional.
A short description of test [18]: off-target signal loss in HeLa-CEM21 co-culture – HeLa F-luc CTL cells, cherry-picked, counter-screen for HIV-1 Env fusion inhibitor project, dose response (AID 652040).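 Also: potency for signal decrease marking cytotoxic or nonspecific inhibition.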 It is filed as functional, cell-based.
The target in test [19] is Latent membrane protein 1 (Human herpesvirus 4 (strain B95-8), UniProt P03230). Put plainly: TES1-eGFP NF-kB reporter inhibition versus Tet-On dsRED, dose response, selectivity assay for LMP1 NF-kB inhibitor project, imaging, HEK293T, dual-color eGFP/dsRED, cherry-picks (AID 588398). The format is functional, cell-based.
Sequence of Latent membrane protein 1 (P03230 whole entry): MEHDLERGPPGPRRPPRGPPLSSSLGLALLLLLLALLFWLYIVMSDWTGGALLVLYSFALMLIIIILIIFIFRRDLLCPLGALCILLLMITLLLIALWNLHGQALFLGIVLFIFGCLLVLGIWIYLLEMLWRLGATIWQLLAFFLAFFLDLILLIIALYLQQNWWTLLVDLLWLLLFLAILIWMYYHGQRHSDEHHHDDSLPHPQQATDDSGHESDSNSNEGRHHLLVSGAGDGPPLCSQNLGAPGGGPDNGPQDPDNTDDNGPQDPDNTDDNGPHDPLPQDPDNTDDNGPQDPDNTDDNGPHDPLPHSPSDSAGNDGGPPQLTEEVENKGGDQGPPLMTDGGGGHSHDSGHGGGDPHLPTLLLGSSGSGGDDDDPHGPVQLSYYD
For another test, the system named is Jurkat. Kind of test: antigen receptor-induced NF-kB inhibitors, dose response, Jurkat, luciferase reporter, luminescence, B- and T-cell (AID 489004).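 Also: NF-kB luciferase reporter Jurkat cells stimulated with PMA plus ionomycin.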 Particulars: Homo sapiens. The format is functional, cell-based.
Test [20] is described as follows: inhibitors of firefly luciferase expression or activity, dose response, H4 neuroglioma cells, luminescence (AID 1990). The format is functional, cell-based.
A short description of test [21]: ZM109 Env clade C HIV-1 fusion inhibitors, dose response, HeLa effector, CEM target cells, luciferase, cherry-pick (AID 652058). It is filed as functional, cell-based.
Test [22] concerns A-375. Put plainly: MITF: Counter assay: A375 proliferation Measured in Cell-Based System Using Plate Reader - 2084-03_Inhibitor_Dose_DryPowder_Activity. [Related pubchem assays (depositor defined):AID488944]. It is filed as functional. Particulars: Homo sapiens.
Test [23] relates to A-375. Kind of test: A375 melanoma cell viability reduction, dose response, counter-screen for MITF modulator project, cherry-pick samples, set 2 (AID 540335). It is filed as functional, cell-based. As to conditions: Homo sapiens.

Sequence of Voltage-gated inwardly rectifying potassium channel KCNH2 (Q12809 whole entry): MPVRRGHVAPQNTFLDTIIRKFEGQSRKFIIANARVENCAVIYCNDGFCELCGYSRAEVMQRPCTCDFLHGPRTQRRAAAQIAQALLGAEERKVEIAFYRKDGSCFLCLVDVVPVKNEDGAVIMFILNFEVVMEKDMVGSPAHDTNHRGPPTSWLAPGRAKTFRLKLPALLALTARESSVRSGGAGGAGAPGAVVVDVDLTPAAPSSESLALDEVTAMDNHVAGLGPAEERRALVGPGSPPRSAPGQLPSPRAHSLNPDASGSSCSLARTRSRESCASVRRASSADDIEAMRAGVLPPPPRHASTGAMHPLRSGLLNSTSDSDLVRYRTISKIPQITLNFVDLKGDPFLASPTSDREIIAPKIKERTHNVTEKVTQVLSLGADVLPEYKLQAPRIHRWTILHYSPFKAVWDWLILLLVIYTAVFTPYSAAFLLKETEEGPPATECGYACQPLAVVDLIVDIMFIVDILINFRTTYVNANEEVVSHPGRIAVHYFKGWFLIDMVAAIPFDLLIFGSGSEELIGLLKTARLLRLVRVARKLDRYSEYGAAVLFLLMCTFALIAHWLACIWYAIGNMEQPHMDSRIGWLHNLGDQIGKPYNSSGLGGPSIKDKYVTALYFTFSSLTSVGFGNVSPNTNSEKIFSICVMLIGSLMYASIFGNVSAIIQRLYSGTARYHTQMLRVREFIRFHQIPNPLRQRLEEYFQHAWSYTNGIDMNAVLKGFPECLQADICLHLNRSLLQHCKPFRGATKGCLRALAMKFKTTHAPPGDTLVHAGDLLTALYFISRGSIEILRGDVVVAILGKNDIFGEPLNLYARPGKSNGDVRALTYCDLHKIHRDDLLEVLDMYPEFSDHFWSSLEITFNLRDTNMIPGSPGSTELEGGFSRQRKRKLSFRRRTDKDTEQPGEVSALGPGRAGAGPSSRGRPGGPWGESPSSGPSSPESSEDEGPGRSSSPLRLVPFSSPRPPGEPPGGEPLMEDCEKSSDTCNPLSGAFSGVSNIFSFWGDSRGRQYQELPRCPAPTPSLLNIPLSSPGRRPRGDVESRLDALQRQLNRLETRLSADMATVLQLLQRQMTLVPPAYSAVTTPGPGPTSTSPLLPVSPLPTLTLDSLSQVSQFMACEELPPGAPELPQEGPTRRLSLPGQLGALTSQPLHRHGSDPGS
Sequence of Cyclin-dependent kinase 5/CDK5 activator 1 (Q00535 whole entry): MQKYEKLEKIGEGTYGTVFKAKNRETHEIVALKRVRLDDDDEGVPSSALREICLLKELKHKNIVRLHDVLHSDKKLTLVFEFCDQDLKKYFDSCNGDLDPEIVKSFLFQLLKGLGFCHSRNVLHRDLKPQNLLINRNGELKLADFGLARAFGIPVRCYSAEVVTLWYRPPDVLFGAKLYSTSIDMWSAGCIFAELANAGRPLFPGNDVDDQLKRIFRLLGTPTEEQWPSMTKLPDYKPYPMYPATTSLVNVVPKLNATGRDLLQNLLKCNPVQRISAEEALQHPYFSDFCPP
Sequence of Cyclin-dependent kinase 5/CDK5 activator 1 (Q15078 whole entry, further chain): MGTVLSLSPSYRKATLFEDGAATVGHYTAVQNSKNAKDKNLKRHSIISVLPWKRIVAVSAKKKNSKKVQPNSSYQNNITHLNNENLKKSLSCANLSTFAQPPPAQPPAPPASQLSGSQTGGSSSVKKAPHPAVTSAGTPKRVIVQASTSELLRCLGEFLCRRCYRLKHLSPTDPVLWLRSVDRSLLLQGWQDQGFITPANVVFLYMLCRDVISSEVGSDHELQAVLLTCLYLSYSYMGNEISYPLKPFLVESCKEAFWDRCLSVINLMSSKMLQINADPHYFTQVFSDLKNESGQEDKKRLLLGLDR

Regarding `C[C@@H]1CN([C@@H](C)CO)C(=O)c2cccc(NC(=O)Nc3cccc4ccccc34)c2O[C@H]1CN(C)S(=O)(=O)c1ccc2ncsc2c1`, the AC50 with INS1 [1] is 24900 nM (active); in [2] it was 34600 nM (active); with INS1 [3], 176000 nM (active); with INS1 [4], 38800 nM (active).

For the compound `ClC(Cl)=C(c1ccc(Cl)cc1)c1ccc(Cl)cc1` [DICHLORODIPHENYLDICHLOROETHYLENE], the half-maximal activity concentration (AC50) in [5] is 15.8 µM (inconclusive) and 20 µM (inconclusive).

As to `Cc1cc(C)cc(C(=O)NC(CC(N)=O)c2ccc(N3CCN(c4ccccn4)CC3)c([N+](=O)[O-])c2)c1` (stereo not given), in test [6], the EC50 is 714 nM (active).

Consider `OCCCNc1nccc(-c2cc(Nc3cccc(Cl)c3)ncn2)n1`, for which the AC50 on Paired box protein Pax-8 was 2700 nM (active); in test [7], 2610 nM (active); in test [9], 418 nM (active); in test [11], 417 nM (active); in [13] it was 5080 nM (active); in test [14], 2960 nM (active). Moreover, the AC50 in test [16] is 2710 nM (active); in test [17], 569 nM (active); in [18], 1350 nM (active); in test [19], 535 nM (active); in test [21], < 260 nM (active). Moreover, the EC50 in [8] is 5300 nM (active); in test [10], 3800 nM (active); in test [15], 1860 nM (active); in [20] it was 2330 nM (active). The IC50 is > 80000 nM (inactive) in [12] and 320 nM (active) in the test with Jurkat.

In the case of `C/C(=N\Nc1cc(N2CCOCC2)ncn1)c1ccccc1`, the AC50 in the test on A-375 [22] and in the test on A-375 [23] was > 35000 nM (active) each time.
